Reference: ChEMBL document CHEMBL1152356, “Solving the confusion of gnaphaliin structure: gnaphaliin A and gnaphaliin B identified as active principles of Gnaphalium liebmannii with tracheal smooth muscle relaxant properties” (J Nat Prod, 2009)

Assay: Vasorelaxant activity against carbachol chloride-induced contraction in guinea pig trachea treated 30 mins after carbachol chloride challenge
Type: functional, tissue-based, Cavia porcellus

EC50 [µg/mL] | SMILES | EC50 (read-out: EC50) [µM]
 | Cn1c(=O)c2[nH]cnc2n(C)c1=O [AMINOPHYLLINE] | 534
63.05 | COc1cc(O)c2c(=O)c(O)c(-c3ccccc3)oc2c1OC [GNAPHALIIN B] | 
43.1 | COc1c(-c2ccccc2)oc2c(OC)c(O)cc(O)c2c1=O [GNAPHALIIN] | 
